Format in all cases: cell-based
Experiment [1] deals with apolipoprotein E (ApoE) mRNA in HepG2 cells. The experiment can be described thus: Target gene quantification (quantitative real-time PCR), ApoE. The note with it: HepG2, 7 at 30 µM versus bexarotene at 1 µM, 8 h, qRT-PCR. As for the experimental part:
(§1) Moreover, 7 was characterized for its ability to modulate RXR target gene expression under more physiological conditions. Hepatoma cells (HepG2) were incubated with 7 (30 µM) or reference RXR agonist bexarotene (9, 1 µM) for eight hours and mRNA expression of RXR regulated genes ATP-binding cassette transporter A1 (ABCA1), angiopoietin like protein 4 (ANGPTL4) and apolipoprotein E (ApoE) was analysed by quantitative real-time PCR.
(§2) HepG2 cells were incubated with test compound 7 (30 µM) or bexarotene (1 µM) as positive control each dissolved in 0.1% DMSO or 0.1% DMSO alone as untreated control for 8 h, harvested, washed with cold phosphate buffered saline (PBS) and then directly used for RNA extraction with the Total RNA Mini Kit (R6834-02, Omega Bio-Tek, Inc., Norcross, GA, USA). 2 µg RNA were reverse-transcribed into cDNA using the High-Capacity cDNA Reverse Transcription Kit (4368814, Thermo Fischer Scientific, Inc.). RXR target gene expression was evaluated by quantitative real time PCR analysis with a StepOnePlus™ System (Life Technologies, Carlsbad, CA, USA) using PowerSYBRGreen (Life Technologies; 12.5 µl per well) and the primers reported in Supplementary Table 4[58]. […] The expression was quantified by the comparative ∆∆Ct method. […] Results are expressed as mean ± standard error of the mean (SEM) relative mRNA expression compared to DMSO (0.1%) control which was set as 1.

For a further experiment, the target named is T1, RARα (Homo sapiens, UniProt P10276).
T1 construct: expressed in transfected cells; host or cells: HEK293T
T1 sequence (P10276 183-417 limits assumed): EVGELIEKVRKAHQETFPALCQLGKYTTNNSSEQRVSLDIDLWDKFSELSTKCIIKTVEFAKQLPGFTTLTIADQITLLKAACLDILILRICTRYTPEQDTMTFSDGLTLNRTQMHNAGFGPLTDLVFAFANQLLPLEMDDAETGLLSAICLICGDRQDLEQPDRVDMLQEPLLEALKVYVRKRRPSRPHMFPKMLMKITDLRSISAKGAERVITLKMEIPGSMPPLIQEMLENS
As to the kind of experiment: Gal4 hybrid reporter gene assay RARα (selectivity profiling). As for the experimental part:
as §1
(§3) The Gal4 hybrid reporter gene assays were conducted as reported previously[39]–[41]. pFA-CMV-based constructs comprising the ligand binding domain of the human nuclear receptor in question were used as expression plasmids for the chimera receptors. pFR-Luc (Stratagene) served as reporter plasmid and pRL-SV40 (Promega) for normalization of transfection efficiency and cell growth. The assays were conducted in 96-well format in HEK293T cells that were cultured as described previously[39]–[41]. Transient transfection was carried out using Lipofectamine LTX reagent (Invitrogen) according to the manufacturer’s protocol. After transfection and incubation with test compounds (12–14 h), cells were assayed for luciferase activity using Dual-Glo™ Luciferase Assay System (Promega) according to the manufacturer’s protocol. Luminescence was measured with an Infinite M200 luminometer (Tecan Deutschland GmbH). […]

In another experiment the target is T2, LXRα (Homo sapiens, UniProt Q13133).
T2 construct: expressed in transfected cells; host or cells: HEK293T
T2 sequence (Q13133 209-447 limits assumed): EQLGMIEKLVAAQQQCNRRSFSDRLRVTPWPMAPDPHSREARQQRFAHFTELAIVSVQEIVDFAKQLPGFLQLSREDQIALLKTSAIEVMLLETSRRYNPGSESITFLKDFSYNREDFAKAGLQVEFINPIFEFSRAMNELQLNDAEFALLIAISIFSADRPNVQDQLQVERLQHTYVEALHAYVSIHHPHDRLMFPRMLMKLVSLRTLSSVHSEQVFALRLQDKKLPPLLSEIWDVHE
As to the kind of experiment: Gal4 hybrid reporter gene assay LXRα (selectivity profiling). As for the experimental part:
as §1, §3

The subject of experiment [2] is ATP-binding cassette transporter A1 (ABCA1) mRNA in HepG2 cells. The experiment can be described thus: Target gene quantification (quantitative real-time PCR), ABCA1. The note with it: HepG2, 7 at 30 µM versus bexarotene at 1 µM, 8 h, qRT-PCR. As for the experimental part: as §1, §2

For `CC(C)(C)c1cc(/C=N/NC(=O)c2ccc(N)cc2)cc(C(C)(C)C)c1` [Compound 7], the “induction of ApoE mRNA expression” value in experiment [1] is reported as “comparable efficacy as RXR agonist bexarotene”. At RARα, the “activity on RARα” value is “no activity”. For the same molecule, at LXRα, the “activity on LXRα” value is “no activity”. The “induction of ABCA1 mRNA expression” value in experiment [2] is given as “comparable efficacy as RXR agonist bexarotene”.

These data come from PMC6220272, “Scaffold-Hopping from Synthetic Drugs by Holistic Molecular Representation” (Scientific Reports, 2018).
